# Assay results: US12454678B2, “Muscle differentiation-promoting actions of ergothioneine, ascorbic acid 2-glucoside, ascorbic acid, and combination thereof” (NAGASE & CO., LTD., priority 2018, dated 2025)
# Assays:
# Type in all cases: cell-based
# [1] = test system: MyH2 mRNA expression in C2C12 cells; assay: MyH2 mRNA expression level of C2C12 cells (real time PCR, corrected by PPIA); settings: for MyH2 mRNA expression: procedure of Example 3, vs NT
# Description: (§1) C2C12 cells were suspended in a growth medium to adjust the cell density to 65×10^4 cells/ml. Then, 1.5 ml of the cell suspension was added to each well of a 6-well plate, and the cells were cultured in a 5% CO2 incubator for 24 hours. The growth medium was removed, and 2 ml of a differentiation medium containing 0.5 mM EGT was added. A control group (NT) was subjected to the exactly same operation except that EGT was not contained. The culture medium was removed after 2 days, 1 ml of TRIzol (Invitrogen Corporation) was added to each well, and RNA was collected according to the protocol of TRIzol. The collected RNA was converted into complementary strand DNA with a reverse transcription kit (Takara Bio Inc.). The following primer DNAs (MyH2 [NM_001039545]: forward 5′[…]3′ (SEQ ID NO: 5), reverse 5′[…]3′ (SEQ ID NO: 6), ACTA1 [NM_001272041]: forward 5′[…]3′ (SEQ ID NO: 7), PPIA [NM_008907]: forward 5′[…]3′ (SEQ ID NO: 3), and reverse 5′[…]3′ (SEQ ID NO: 4)) were added to the obtained complementary strand DNA, and the gene expression levels of MyH2, ACTA1, and PPIA were measured by subjecting the mixture to a CFX96 Touch™ real time PCR analysis system (Bio-Rad Laboratories, Inc.) using TB Green™ Premix Ex Tag™ II (Takara Bio Inc.) according to the protocol thereof. Correction was performed by dividing the amounts of expressed MyH2 and ACTA1 mRNA by the amount of expressed PPIA mRNA to calculate the myosin heavy chain 2 (MyH2) and a actin (ACTA1) mRNA expression levels. […] The MyH2 mRNA and ACTA1 mRNA expression levels increased by adding EGT.
# C2C12 cells were suspended in a growth medium to adjust the cell density to 65×10^4 cells/ml. Then, 1.5 ml of the cell suspension was added to each well of a 6-well plate, and the cells were cultured in a 5% CO2 incubator for 24 hours. The growth medium was removed, and 2 ml of a differentiation medium containing 0.5 mM EGT, 25 μM edaravone (hereinafter, abbreviated to Edv), or 50 μM Edv was added to each well. Edv is a powerful synthetic antioxidant. The culture medium was exchanged for a new culture medium every other day, and the culture was continued. A control group (NT) was subjected to the exactly same operation except that EGT was not contained. The culture medium was removed after 4 days, 1 ml of TRIzol (Invitrogen Corporation) was added to each well, and RNA was collected according to the protocol of TRIzol. The complementary strand DNA of the mRNA was obtained by treating the collected RNA with a reverse transcription kit (Takara Bio Inc.). The following primer DNAs (MyH2 [NM_001039545]: forward 5′[…]3′ (SEQ ID NO: 5), reverse 5′[…]3′ (SEQ ID NO: 6), PPIA [NM_008907]: forward 5′[…]3′ (SEQ ID NO: 3), and reverse 5′[…]3′ (SEQ ID NO: 4)) were added to the obtained complementary strand DNA, and the gene expression levels of MyH2 and PPIA were measured by subjecting the mixture to a CFX96 Touch™ real time PCR analysis system (Bio-Rad Laboratories, Inc.) using TB Green™ Premix Ex Tag™ II Kit (Takara Bio Inc.) according to the protocol thereof. Correction was performed by dividing the amount of expressed MyH2 mRNA by the amount of expressed PPIA mRNA to calculate the MyH2 mRNA expression level.
# (§2) The amounts of MyH2 and ACTA1 mRNA expression of C2C12 cells when the differentiation medium containing only EGT was used, when the differentiation medium containing EGT and AG was used, and when the differentiation medium containing only AG was used were investigated. AA2G(R) produced by Hayashibara Co., Ltd. was used as AG. […]
# [2] = test system: ACTA1 mRNA expression in C2C12 cells; assay: ACTA1 mRNA expression level of C2C12 cells (real time PCR, corrected by PPIA); settings: for ACTA1 mRNA expression: procedure of Example 3, vs NT
# Description: as §1
# as §2, with “AG. The concentration of EGT in the differentiation medium was 0.5 mM, and the concentration of AG was 1.0 mM. The experiment procedure was the same as that of Example 3.” for “AG.”
# C2C12 cells = assay: Microscopic observation of muscle differentiation of C2C12 cells in differentiation medium; settings: 0.5 mM EGT in differentiation medium, sixth day, vs control without EGT
# Description: C2C12 cells were suspended in a 10% fetal calf serum-containing Dulbecco's modified Eagle's medium (hereinafter, called a growth medium) to adjust the cell density to 65×10^4 cells/ml. Then, 1.5 ml of the cell suspension was added to each well of a 6-well plate, and the cells were cultured in a 5% CO2 incubator for 24 hours. The growth medium was removed, and 2 ml of 2% horse serum-containing Dulbecco's modified Eagle's medium containing 0.5 mM EGT (hereinafter, called a differentiation medium) was then added to each well. The differentiation medium was exchanged for a new culture medium every other day, and the culture was continued. A control group was subjected to the exactly same operation except that EGT was not contained. The forms of the cells were observed and photographed through a microscope (NIKON CORPORATION: Eclipse Ts2) on the sixth day after exchange for the differentiation medium.
# [3] = test system: MyoD mRNA expression in C2C12 cells; assay: MyoD mRNA expression level of C2C12 cells (real time PCR, corrected by PPIA); settings: 0.1 mM or 0.5 mM EGT, after 2 days
# Description: C2C12 cells were suspended in a growth medium to adjust the cell density to 65×10^4 cells/ml. Then, 1.5 ml of the cell suspension was added to each well of a 6-well plate, and the cells were cultured in a 5% CO2 incubator for 24 hours. The growth medium was removed, and 2 ml of a differentiation medium containing 0.1 mM or 0.5 mM EGT was then added to each well. A control group (hereinafter abbreviated to NT) was subjected to the exactly same operation except that EGT was not contained. The culture medium was removed after 2 days, 1 ml of TRIzol (Invitrogen Corporation) was added to each well, and the cells were dissolved. The cell solution was collected in an Eppendorf tube, and RNA was collected according to the protocol of TRIzol. The complementary strand DNA of the mRNA was obtained by treating the collected RNA with a reverse transcription kit (Takara Bio Inc.). The following primer DNAs (MyoD [NM_010866]: forward 5[…]3′ (SEQ ID NO: 1), reverse 5′[…]3′ (SEQ ID NO: 2), PPIA [NM_008907]: forward 5′[…]3′ (SEQ ID NO: 3), and reverse 5′[…]3′ (SEQ ID NO: 4)) were added to the obtained complementary strand DNA, and the gene expression levels of MyoD and PPIA were measured by subjecting the mixture to a CFX96 Touch™ real time PCR analysis system (Bio-Rad Laboratories, Inc.) using TB Green™ Premix Ex Taq™ II (Takara Bio Inc.) according to the protocol thereof. […]
compound,measurement,setting,value
"O=C1O[C@H]([C@@H](O)CO)C(O)=C1O[C@H]1O[C@H](CO)[C@@H](O)[C@H](O)[C@H]1O [AG, ascorbic acid 2-glucoside]",MyH2 mRNA expression,"[1]; only AG, 1.0 mM",increased
same,ACTA1 mRNA expression,"[2]; only AG, 1.0 mM",increased
"C[N+](C)(C)[C@@H](Cc1c[nH]c(=S)[nH]1)C(=O)[O-] [EGT, Ergothioneine]",differentiation from C2C12 cells to muscle cells / myotube cell formation,C2C12 cells,more myotube cells were formed
same,MyH2 mRNA expression level (relative to NT = 1),"[1]; 0.5 mM EGT, after 2 days",increased
same,MyoD mRNA expression level (relative to NT = 1),[3],increased depending on the concentration of EGT
same,ACTA1 mRNA expression level (relative to NT = 1),"[2]; 0.5 mM EGT, after 2 days",increased
"CC1=NN(c2ccccc2)C(=O)C1 [Edv, edaravone, reference compound]",MyH2 mRNA expression level (relative to NT = 1),"[1]; 25 μM or 50 μM Edv, after 4 days",did not affect
same,MyH2 mRNA expression level (relative to NT = 1),"[1]; 25 μM or 50 μM Edv, after 4 days, listed as edaravone",does not influence
"O=C1O[C@H]([C@@H](O)CO)C(O)=C1O [VC, ascorbic acid]",MyH2 mRNA expression,"[1]; only VC, 0.5 mM",increased
same,ACTA1 mRNA expression,"[2]; only VC, 0.5 mM",increased
